Data as given in patent US12357536B2, “Containers with selective dissolved gas content” (BAXTER INTERNATIONAL INC., priority 2021, dated 2025).

How the values were obtained:
[1] = Stability of a trace element mix in glass bottle, 6 months at 5° C. or 40° C. (Table V); settings: for Concentration recovered, T6M 5° C. / Percentage of the recovered TE, T6M 5° C. / Concentration recovered, T6M 40° C. / Percentage of the recovered TE, T6M 40° C.: TE mix, pH 2.2, 200 mM malic acid, glass bottle (about 3 ppm DO), heat sterilized; for Concentration recovered, T6M 5° C. / Percentage of the recovered TE, T6M 5° C.: 6 months at 5° C.; for Percentage of the recovered TE, T6M 5° C. / Percentage of the recovered TE, T6M 40° C.: vs theoretical concentration; for Concentration recovered, T6M 40° C. / Percentage of the recovered TE, T6M 40° C.: 6 months at 40° C.
Experimental: The solution was heat sterilized and stored 6 months at 40° C. or 5° C.(T6M 40° C. and T6M 5° C., respectively).

[2] = Regression between Se assay and log dissolved oxygen (Example 7, FIG. 13); type: physicochemical; settings: fitted line Se dosage vs log oxygen content; sterilized samples stored at 40° C.
Experimental: The impact of oxygen seems of major importance in the stability of Selenite. […] To confirm this hypothesis, a regression test was performed between Se assay results and log(dissolved oxygen results). Only sterilized samples stored at 40° C. were considered as the sterilization and storage at high temperature seem to both increase the Se degradation.
Dissolved oxygen content is so the most impacting parameter and CQA (Critical Quality Attribute) in the stability of Selenium. As shown in the Figure, low oxygen amounts of around 0.5 ppm can be sufficient to ensure the stability of Selenite in solution, no saturation would be required.

Structure (SMILES)	Percentage of the recovered TE, T6M 5° C. [1]	Percentage of the recovered TE, T6M 40° C. [1]	Concentration recovered, T6M 5° C. [1]	Concentration recovered, T6M 40° C. [1]	Oxygen amount sufficient to ensure the stability of Selenite in solution [2]	Stability of selenite ([1]; in the presence of few ppm of dissolved oxygen)
[Cr] [Cr, chromium]	77.3%	83.1%	306 µg/L	329 µg/L		
O=[Se](O)O [selenite, sodium selenite]					around 0.5 ppm	stable
[Se] [Se, selenium]	87.2%	87.7%	2446 µg/L	2461 µg/L		
[Zn] [Zn, zinc]	77.8%	84.4%	158347 µg/L	171822 µg/L		

Now from value to molecule, other results behind:

Percentage of the recovered TE, T6M 5° C. [1]	Percentage of the recovered TE, T6M 40° C. [1]	Structure (SMILES)	Concentration recovered, T6M 5° C. [1]	Concentration recovered, T6M 40° C. [1]	Oxygen amount sufficient to ensure the stability of Selenite in solution [2]	Stability of selenite ([1]; in the presence of few ppm of dissolved oxygen)
78.6%	84.4%	I [I, iodide]	3167 µg/L	3401 µg/L		
94%	88%	F [F, fluoride]				
81.1%	87.1%	[Cu] [Cu, copper]	9784 µg/L	10504 µg/L		
79.9%	86.6%	[Mo] [Mo, molybdenum]	653 µg/L	707 µg/L		
